In patent publication US8377945B2, “Small molecule inhibitors of spleen tyrosine kinase (SYK)” (Rigel Pharmaceuticals Inc., priority 2009, dated 2013):

What was measured:
[1] = test system: Human mast cells (CHMC cells); assay: Tryptase release assay (mast cell degranulation induced by anti-IgG FcγR cross-linking); assay type: cell-based; settings: IC50 of tryptase release from human mast cells after anti-IgG stimulation, read-out: LD Tryptase
Procedure: Compounds were assayed for inhibition of mast cell activation induced by FcγR cross-linking by measuring the activity of tryptase released upon degranulation as follows:
Human mast cells were cultured and differentiated from […] progenitor cell as described in U.S. Patent Publication No. 2005-234049, incorporated herein by reference. For example, 65 μl of various concentrations of the compound to be assayed were prepared in MT (137 mM NaCl, 2.7 mM KCl, 1.8 mM CaCl2, 1.0 mM MgCl2, 5.6 mM Glucose, 20 mM Hepes (pH 7.4), 0.1% Bovine Serum Albumin, (Sigma A4503)) containing 2% MeOH and 1% DMSO, or control buffer were added to duplicate 96-well V-bottom plates. Pelleted and resuspended (in warm MT) CHMC cells (65 μl) were added to each 96-well plate, mixed and incubated for 1 hour at 37° C. 25 μl of 6× anti-IgG Rabbit anti-human IgG, Affinity purified (Bethyl Laboratories Cat No. A80-105A3) final concentration 1 μg/ml, was added to the test wells. MT (25 μl) was added to control wells. After a 60-minute incubation at 37° C., cells and cell debris were pelleted by centrifugation at 1000 rpm for 10 min and tryptase and leukotriene C4 levels were measured.
To measure tryptase levels, 25 μl of supernatant from each well was transferred to a fresh 96-well black bottom plate, to which 100 μl of fresh tryptase substrate solution [(Z-Ala-Lys-Arg-AMC2TFA; Enzyme Systems Products, #AMC-246)] 1:2000 in tryptase assay buffer [0.1 M Hepes (pH 7.5), 10% w/v Glycerol, 10 μM Heparin (Sigma H-4898) 0.01% NaN3] was added. After 30 minute incubation at room temperature, the optical density of the plates is measured at 355 nm/460 nm on a spectrophotometric plate reader. Table 2 provides the IC50 values.

Syk kinase = target: T1, Syk kinase (Homo sapiens, UniProt P43405); assay: ELISA-based Syk kinase assay (phosphorylation of HS1 peptide substrate by isolated Syk kinase); assay type: biochemical; settings: IC50 of Syk kinase inhibition; 2 μM ATP, 2 μM peptide substrate
T1 construct: purchased Millipore 14-314
Procedure: Compounds were tested for the ability to inhibit Syk kinase catalyzed phosphorylation of a peptide substrate in an assay with isolated Syk kinase.
An assay was carried out in a Costar white 96 well plate (Fisher Scientific, Cat No. 07-200-591) coated overnight with 0.01 mg/ml Neutravidin (Pierce, 100 μl/well) at 4° C. Neutravidin pre-coated 96 well plates were blocked with 2% BSA in PBST buffer for at least 1 hour before starting the assay at room temperature. Serially diluted compound stock solution containing a subject compound was prepared separately in DMSO solution starting from 300 μM and 2 μl of this diluted compound (3% DMSO final concentration) was added directly to neutravidin coated assay plate containing 55.5 μl/well of kinase reaction buffer composed of 20 mM HEPES, pH 7.4, 5 mM MgCl2, 2 mM MnCl2, 1 mM DTT, 0.01% Tween 20 pre-mixed with ATP and kinase substrate (HS1 peptide). Reaction was initiated by adding of 2.5 μl/well Syk kinase (Millipore, Cat No. 14-314) resulting in a final reaction volume of 60 μl and then the reaction was allowed to continue for 30 minutes at room temperature. Final enzyme reaction conditions were 20 mM HEPES, pH 7.4, 5 mM MgCl2, 2 mM MnCl2, 1 mM DTT, 0.01% Tween 20, 0.25 ng Syk, 2 μM ATP, 2 μM peptide substrate (Biotin-EQEDEPEGDYEEVLE-CONH2, SynPep Corporation). After completing the reaction, assay plate was washed three times with PBST and incubated for 1 hour at room temperature with 100 μl/well of phosphopeptide detection antibody solution prepared by mixing 1-1000 diluted mouse anti-pTyr monoclonal antibody (Cell Signal Technology, Cat No. 9411) and 1-1000 diluted goat HRP-conjugated anti-mouse IgG (Jackson Immunoresearch, Cat. No. 115-035-003). Before developing the plate with supersignal ELISA pico chemiluminescent substrate (Pierce), plate was washed three times again with PBST and were read on a SpectraMax M5 microplate reader (Moleculear Devices).

Row | SMILES | IC50 [1] [µM] | IC50 (Syk kinase) [µM]
1 | COc1cc(Nc2c(-c3cc(O)c(OC)c(OC)c3)[nH]c3c(C#N)cnn23)ccc1F [Compound 118] | < 10 | < 0.5
2 | COc1ccc(Nc2c(-c3ccc(OC)c(OCC(N)=O)c3)[nH]c3c(C#N)cnn23)cc1OC [Compound 125] | < 10 | 0.51 to 2.99
3 | COc1ccc(Nc2c(-c3ccc(OCCN4CCOCC4)cc3)[nH]c3c(C#N)cnn23)cc1OC [Compound 124] | < 10 | 0.51 to 2.99
4 | COc1cc(Nc2c(-c3cc(OC)c(OC)c(OC)c3)[nH]c3c(C#N)cnn23)ccc1F [Compound 87] | < 10 | < 0.5
5 | COc1cc(Nc2c(-c3ccc(OCC(N)=O)c(OC)c3)[nH]c3c(C#N)cnn23)ccc1F [Compound 139] | < 10 | < 0.5
6 | COc1ccc(-c2[nH]c3c(C#N)cnn3c2Nc2ccc(OC)c(OC)c2)cc1F [Compound 52] | > 5000 | 3 to 25
7 | COc1ccc(Nc2c(-c3cccc(N4CCOCC4)c3)[nH]c3c(C#N)cnn23)cc1OC [Compound 105] | 11 to 100 | 0.51 to 2.99
8 | COc1cc(-c2[nH]c3c(C#N)cnn3c2Nc2ccc(N3CCOCC3)cc2)cc(OC)c1OC [Compound 25] | < 10 | 0.51 to 2.99
9 | COC(=O)COc1ccc(-c2[nH]c3c(C#N)cnn3c2Nc2ccc3c(c2)OCCO3)cc1OC [Compound 85] | < 10 | < 0.5
10 | COc1cc(-c2[nH]c3c(C#N)cnn3c2Nc2ccc(F)c(F)c2)cc(OC)c1OC [Compound 64] | < 10 | 0.51 to 2.99
11 | COc1ccc(Nc2c(-c3ccc(OCC(=O)NC4CC4)c(OC)c3)[nH]c3c(C#N)cnn23)cc1OC [Compound 140] | < 10 | < 0.5
12 | COc1ccc(Nc2c(-c3cccc(NS(C)(=O)=O)c3)[nH]c3c(C#N)cnn23)cc1OC [Compound 114] | < 10 | 0.51 to 2.99
13 | COc1cc(Nc2c(-c3cc(OC)c(OC)c(OC)c3)[nH]c3c(C#N)cnn23)ccc1Cl [Compound 132] | < 10 | 0.51 to 2.99
14 | COc1cc(-c2[nH]c3c(C#N)cnn3c2Nc2ccc(OC(C)C)c(Cl)c2)cc(OC)c1OC [Compound 141] | < 10 | 0.51 to 2.99
15 | N#Cc1cnn2c(Nc3ccc(N4CCOCC4)cc3)c(-c3ccc4c(c3)NC(=O)CO4)[nH]c12 [Compound 43] | 11 to 100 | 3 to 25
16 | COc1cc(-c2[nH]c3c(C#N)cnn3c2Nc2cccc(CNC(=O)c3ccccn3)c2)cc(OC)c1OC [Compound 147] | < 10 | < 0.5
17 | COc1cc(-c2[nH]c3c(C#N)cnn3c2Nc2ccc(SC)c(F)c2)cc(OC)c1OC [Compound 157] | 11 to 100 | < 0.5
18 | CC(=O)Nc1cccc(Nc2c(-c3ccc4cc[nH]c4c3)[nH]c3c(C#N)cnn23)c1 [Compound 47] | < 10 | 0.51 to 2.99
19 | COc1cc(Nc2c(-c3ccc(OC)c(OCC(N)=O)c3)[nH]c3c(C#N)cnn23)ccc1F [Compound 138] | < 10 | 0.51 to 2.99
20 | COc1cc(-c2[nH]c3c(C#N)cnn3c2Nc2ccc(CNC(=O)c3ccncc3)cc2)cc(OC)c1OC [Compound 150] | 11 to 100 | 0.51 to 2.99
21 | COc1ccc(Nc2c(-c3ccc(OC)c(OC4CCCC4)c3)[nH]c3c(C#N)cnn23)cc1OC [Compound 106] | < 10 | < 0.5
22 | COc1cc(-c2[nH]c3c(C#N)cnn3c2Nc2cc(F)c(OC)c(F)c2)cc(OC)c1OC [Compound 143] | < 10 | < 0.5
23 | COc1ccc(Nc2c(-c3cc(C)c(OC)c(C)c3)[nH]c3c(C#N)cnn23)cc1OC [Compound 136] | < 10 | 0.51 to 2.99
24 | COc1cc(Nc2c(-c3ccc(C(N)=O)cc3)[nH]c3c(C#N)cnn23)ccc1F [Compound 117] | > 5000 | 0.51 to 2.99
25 | N#Cc1cnn2c(Nc3ccc4c(c3)OCCO4)c(-c3ccc4c(c3)NC(=O)CO4)[nH]c12 [Compound 50] | > 5000 | 0.51 to 2.99
26 | COc1cc(-c2[nH]c3c(C#N)cnn3c2Nc2ccc(F)c(OC(C)C)c2)cc(OC)c1OC [Compound 133] | < 10 | 0.51 to 2.99
27 | COc1cc(Nc2c(-c3ccc(C(N)=O)cc3)[nH]c3c(C#N)cnn23)cc(OC)c1OC [Compound 81] | – | 3 to 25
28 | COC(=O)c1ccc(Nc2c(-c3cc(O)c(OC)c(OC)c3)[nH]c3c(C#N)cnn23)cc1 [Compound 71] | – | 0.51 to 2.99

Second part, the compound after the results:

Row | IC50 [1] [µM] | IC50 (Syk kinase) [µM] | SMILES
29 | < 10 | 0.51 to 2.99 | COc1ccc(Nc2c(-c3ccc(S(C)(=O)=O)cc3)[nH]c3c(C#N)cnn23)cc1OC [Compound 48]
30 | < 10 | < 0.5 | COc1ccc(Nc2c(-c3cc(O)c(OC)c(OC)c3)[nH]c3c(C#N)cnn23)cc1OC [Compound 100]
31 | 101 to 5000 | 0.51 to 2.99 | N#Cc1cnn2c(Nc3ccc(Br)cc3)c(-c3ccc(C(N)=O)cc3)[nH]c12 [Compound 98]
32 | < 10 | < 0.5 | COc1cc(Nc2c(-c3cc(OC)c(OC)c(OC)c3)[nH]c3c(C#N)cnn23)cc(OC)c1 [Compound 142]
33 | < 10 | < 0.5 | COc1cc(-c2[nH]c3c(C#N)cnn3c2Nc2ccc3c(c2)NC(=O)CO3)cc(OC)c1OC [Compound 137]
34 | < 10 | 0.51 to 2.99 | COc1cc(-c2[nH]c3c(C#N)cnn3c2Nc2ccc(CNC(=O)c3cnccc3C(F)(F)F)cc2)cc(OC)c1OC [Compound 155]
35 | < 10 | 0.51 to 2.99 | COc1ccc(Nc2c(-c3ccc(OCCN4CCCC4=O)cc3)[nH]c3c(C#N)cnn23)cc1OC [Compound 107]
36 | < 10 | 0.51 to 2.99 | COc1ccc(Nc2c(-c3ccc4cc[nH]c4c3)[nH]c3c(C#N)cnn23)cc1OC [Compound 6]
37 | < 10 | < 0.5 | COc1ccc(Nc2c(-c3cc(OC)c(OC)c(OC)c3)[nH]c3c(C#N)cnn23)cc1OC [Compound 28]
38 | < 10 | 0.51 to 2.99 | COc1cc(Nc2c(-c3ccc(OC)c(OC4CCCC4)c3)[nH]c3c(C#N)cnn23)ccc1F [Compound 119]
39 | < 10 | 0.51 to 2.99 | CCOc1cc(Nc2c(-c3cc(OC)c(OC)c(OC)c3)[nH]c3c(C#N)cnn23)ccc1F [Compound 144]
40 | < 10 | 3 to 25 | COc1ccc(Nc2c(-c3ccc(Oc4ccccc4)cc3)[nH]c3c(C#N)cnn23)cc1OC [Compound 8]
41 | < 10 | < 0.5 | COc1ccc(Nc2c(-c3ccc(OCC(N)=O)c(OC)c3)[nH]c3c(C#N)cnn23)cc1OC [Compound 135]
42 | < 10 | 0.51 to 2.99 | COc1ccc(Nc2c(-c3ccc(N4CCOCC4)cc3)[nH]c3c(C#N)cnn23)cc1OC [Compound 104]
43 | < 10 | 0.51 to 2.99 | COc1cc(-c2[nH]c3c(C#N)cnn3c2Nc2ccc(CNC(=O)c3ccc(C(F)(F)F)nc3)cc2)cc(OC)c1OC [Compound 156]
44 | < 10 | 0.51 to 2.99 | COc1cc(-c2[nH]c3c(C#N)cnn3c2Nc2ccc(F)c(OC3CCCC3)c2)cc(OC)c1OC [Compound 145]
45 | 11 to 100 | 0.51 to 2.99 | COc1cc(-c2[nH]c3c(C#N)cnn3c2Nc2cccc(CNC(=O)c3cccnc3)c2)cc(OC)c1OC [Compound 146]
46 | > 5000 | 0.51 to 2.99 | COc1ccc(Nc2c(-c3ccc4c(c3)OCCO4)[nH]c3c(C#N)cnn23)cc1OC [Compound 38]
47 | – | 0.51 to 2.99 | CC(=O)Nc1cccc(Nc2c(-c3ccc4c(c3)NC(=O)CO4)[nH]c3c(C#N)cnn23)c1 [Compound 31]
